From patent publication US12285392B2, “Method for modulating metabolism” (Brightseed, Inc., priority 2018, dated 2025)

Assays:
[1] = tested on: T6PNE cells; test: Lipid clearance in T6PNE cells (steatosis assay); assay type: cell-based
Procedure: T6PNE cells were pretreated for 1 day with 0.06 mM, 0.12 mM or 0.25 mM palmitate at which time 15 μM N-trans-caffeoyltyramine or control (DMSO) was added. Cells were harvested on day 3, 6 and 8 and subjected to staining with Nile Red and Oil Red O. Results are expressed as fold change in Nile Red staining: +palmitate/10% FBS medium (no palmitate)
(§1) Lipid Clearance in HepG2 and T6PNE Cells (Steatosis Assay). The steatosis assay was carried out as described (Kiselyuk, et al. (2012) Chem. Biol. 19(7):806-818) with the exception of the drug concentration, which was 20 μM for N-trans-caffeoyltyramine with 0.25 mM palmitate in HepG2 cell lines, and 10 μM of either N-trans-caffeoyltyramine, N-trans-caffeoyltyramine, or pcoumaroyltyramine, with 0.25 mM palmitate in T6PNE cell lines. Steatosis was assessed using the Oil Red 0 Method for Fats kits (Poly Scientific; Warrington, PA), per manufacturer's guidelines. Briefly, frozen tissue slides or fixed cells were incubated in neat propylene glycol for 2 minutes and Oil Red 0 solution for 15 hours for slides or 1 hour for fixed cells, differentiated in 85% propylene glycol solution for 1 minute, washed twice with distilled water and stained in Hematoxylin of 10 seconds. Slides were mounted with glycerin jelly mounting medium.

[2] = tested on: HepG2 cells; test: Lipid clearance in HepG2 cells (steatosis assay, Oil Red O); assay type: cell-based; settings: HepG2 liver cells, 20 μM
Procedure: as §1

[3] = pH stability assessment; assay type: physicochemical; settings: pH 2, 7.4, 8.5 and 10, 37° C., 0.5 and 72 hours
Procedure: pH Stability Assessment. Individual stock solutions were prepared in DMSO at concentrations of 10 mg/mL. Four different buffer solutions were prepared to achieve solutions with a pH of 2, 7.4, 8.5 and 10. For each pH assay, 5 μL of stock solution was added to 245 μL of buffered solution to a 2 mL tube, vortexed and incubated in a 37° C. water bath. At each timepoint, 50 μL aliquots were taken, neutralized and analyzed via HPLC analysis using a DAD detector at 280 nm. The fold change of the peak area at 280 nm was analyzed for the initial and final timepoint, 0.5 and 72 hours, respectively.

[4] = tested on: diet-induced obese mice; test: Efficacy and tolerability in diet-induced obese mice; assay type: in vivo
Procedure: Alkaline Phosphatase (ALP) Quantitation. Increased levels of ALP in blood are considered indicative of liver function abnormalities. Thus, ALP was assayed in accordance with known methods (Kiselyuk, et al. (2012) Chem. Biol. 19(7):806-818). Briefly, prior to sacrifice, blood was drawn and analyzed using a Vet Scan blood analyzer, measuring alkaline phosphatase (ALP, IU/L), alanine aminotransferase (ALT, IU/L), gamma glutamyl transferase (GGT, IU/L), bile acids (BA, μmol/L), total bilirubin (TBIL, mg/dL), albumin (ALB, g/dL), blood urea nitrogen (BUN, mg/dL), and cholesterol (CHOL, mg/dL).
Triglyceride (TG) Quantitation. TG quantity was assayed using a Triglyceride Colorimetric Assay Kit (Cayman Chemicals; Ann Arbor, MI) according to the manufacturer's instructions.
Lipid Droplet Size Analysis. All slides were scanned at a magnification of 20× using the Aperio Scanscope FL system (Aperio Technologies Inc.; Vista, CA). The appropriate dyes were assigned and illumination levels were calibrated using a preset procedure; the parameters were saved and applied to all slides. The acquired digital images represented whole tissue sections. Sections were evaluated for image quality. All acquired images were subsequently placed in dedicated project folders, and stored on a designated local server. Selected areas of the slides were selected using Aperio Imagescope (version 12 Aperio Technologies Inc.). For analysis, slides were viewed, whole tissue areas were selected and analyzed using the web-based Image Scope viewer. Slides were quantified using the ‘Color Deconvolution v9’ algorithm for oil redo staining (version 11 Aperio Technologies Inc.). The algorithm was optimized using a preset procedure to maximize the strong red color positive oil droplets signal to noise ratio and the subsequent macro was saved and applied to all slides.
HNF4α Immunostaining in Organ Samples. Samples were harvested from mice, fixed in 4% paraformaldehyde and embedded in paraffin or O.C.T. freezing media (Sakura Finetek; Torrance, CA) Slides of 5 μm thickness were washed four times with PBS and treated with 0.3% Triton™ in PBS for 10 minutes. Antigen retrieval was carried out with CitriSolv™ (Fisher Scientific; Waltham, MA) for 10 minutes in sub-boiling temperature. After washing with PBS for 10 minutes, slides were incubated in blocking solution with 5% normal donkey serum (Jackson Immuno Research; West Grove, PA) for 60 minutes at room temperature. Cells were fixed in 4% paraformaldehyde for 15 minutes on 4° C. and washed with PBS, treated with 0.3% Triton™ in PBS for 10 minutes and blocked as previously described for slide samples.
Primary Antibodies. HNF4α antibodies were used (#sc-6556, Santa Cruz Biotechnology; Santa Cruz, CA and #3113, Cell Signaling Technology; Danvers, MA). For fluorescent imaging, samples were incubated with ALEXA FLOUR® 488 green-fluorescent dye or Rhodamine labeled anti-mouse, rabbit or goat and nuclei were counterstained with DAPI (4′,6-diamidino-2-phenylindole) Controls using secondary antibodies alone were used to ensure specificity of immunostaining. Fluorescently labeled sections were analyzed with a conventional inverted microscope (Olympus, PlanFl 40×/0.60) or with a confocal microscope equipped with a krypton/argon laser.
The experiments were performed to establish feeding and treatment regimen, dosing and administration regimens, as well as to provide evidence of beneficial effects of N-trans-caffeoyltyramine on glucose and lipid homeostasis, hepatic steatosis, β-cell function and hepatocyte function. Twelve mice (10 weeks old) were fed a high-fat diet for four weeks to induce obesity. After four weeks, and while on the high-fat diet, six mice were administered 5% DMSO or 120 mg/kg N-trans-caffeoyltyramine twice a day intraperitoneally for 14 days. One hour after the last i.p. injection of DMSO or N-trans-caffeoyl tyramine, the animals were sacrificed and blood and organ (liver, kidney, gut and pancreas) samples were collected. […]

O=C(/C=C/c1ccc(O)c(O)c1)NCCc1ccc(O)cc1 [N-trans-caffeoyltyramine]
Fat accumulation ([1]; 10 μM, 0.25 mM palmitate): inhibition of fat accumulation | Lipid accumulation when palmitate was added prior to compound ([1]; FIG. 6, 15 μM): reduced lipid accumulation | Clearing of fats (Oil Red O staining) [2]: capable of clearing harmful fats from the liver | Accumulation of fats ([2]; 0.25 mM palmitate): inhibited accumulation of fats | pH Stability [3]: Acid Stable | Lipid accumulation in the liver ([4]; 120 mg/kg twice a day i.p. for 14 days): decreased | Weight loss, sickness or abnormal behaviors compared to control ([4]; 120 mg/kg twice a day i.p. for 14 days, high-fat diet mice): None of the treated mice exhibited weight loss, sickness, or abnormal behaviors | Lipid droplet sizes in the liver ([4]; 120 mg/kg twice a day i.p. for 14 days, FIG. 8): reduced | HNF4α expression in the liver ([4]; 120 mg/kg twice a day i.p. for 14 days, P=0.0042, FIG. 7): significantly increased | HNF4α expression in intestines ([4]; FIG. 12): increased | Levels of alkaline phosphatase ([4]; blood, 120 mg/kg twice a day i.p. for 14 days, FIG. 9): significantly reduced | HNF4α expression in the pancreas ([4]; compared to DMSO control mice, FIG. 11): increased | Levels of triglycerides ([4]; liver, 120 mg/kg twice a day i.p. for 14 days, FIG. 10): significantly reduced
